# In ChEMBL document CHEMBL4184301, “Two new coumarins and a new xanthone from the leaves of Rhizophora mucronata” (Bioorg Med Chem Lett, 2018):
# What was measured:
# HeLa = assay: Antiproliferative activity against human HeLa cells after 48 hrs by CCK8 assay; assay type: functional, cell-based
# HL-60 = assay: Antiproliferative activity against human HL60 cells after 48 hrs by CCK8 assay; assay type: functional, cell-based; details: HL-60, 48 h
# [1] = Cytotoxicity against mouse NIH/3T3 cells after 48 hrs by CCK8 assay; assay type: cell-based, NIH3T3
# [2] = Selectivity index, ratio of CC50 for mouse […] cells to IC50 for human HL60 cells; assay type: toxicity; details: NIH/3T3 cells (printed […]) and HL60 cells, read-out: Ratio CC50/IC50
IC50 (HeLa),IC50 (HL-60),SMILES,CC50 at 48 h [1],selectivity ratio [2]
37.1 µM,6.3 µM,CC(C)=CCc1c(O)cc2oc3c(O)cccc3c(=O)c2c1O,–,–
0.023 µM,0.0026 µM,CC(=O)O[C@H]1C(=O)[C@@]2(C)[C@H]([C@H](OC(=O)c3ccccc3)[C@]3(O)C[C@H](OC(=O)[C@H](O)[C@@H](NC(=O)c4ccccc4)c4ccccc4)C(C)=C1C3(C)C)[C@]1(OC(C)=O)CO[C@@H]1C[C@@H]2O [PACLITAXEL],–,–
> 60 µM,> 60 µM,"O=C(O)c1cccc(O)c1O [2,3-DIHYDROXYBENZOIC ACID]",–,–
21.2 µM,35.6 µM,C[C@@H]1C(=O)c2c(O)c(C(=CC(=O)O)c3ccccc3)c3c(c2O[C@@H]1C)C=CC(C)(C)O3 (mixture of isomers),–,–
3.8 µM,12.9 µM,CO[C@H]1c2c(c3c(c4c(-c5ccccc5)cc(=O)oc24)OC(C)(C)C=C3)O[C@H](C)[C@H]1C,–,–
4.4 µM,10.1 µM,CC(C)=CCc1c2c(c3oc(=O)cc(-c4ccccc4)c3c1O)C(=O)[C@H](C)[C@@H](C)O2 [BRASIMARIN C],–,–
> 60 µM,24.5 µM,C[C@H]1Oc2c3c(c(C(=CC(=O)O)c4ccccc4)c(O)c2C(=O)[C@@H]1C)OC(C)(C)C=C3 (mixture of isomers),–,–
33 µM,10.7 µM,COC(=O)C=C(c1ccccc1)c1c(O)c2c(c3c1OC(C)(C)C=C3)O[C@H](C)[C@@H](C)C2=O (mixture of isomers),–,–
42.8 µM,18.3 µM,C/C=C(/C)C(=O)c1c2c(c(OC)c3c(-c4ccccc4)cc(=O)oc13)C=CC(C)(C)O2,–,–
21.3 µM,22.3 µM,O=c1cc(-c2ccc(O)cc2)oc2cc(O)cc(O)c12 [APIGENIN],–,–
5.3 µM,51.2 µM,O=c1cc(-c2ccc(O)c(-c3c(O)cc(O)c4c(=O)cc(-c5ccc(O)cc5)oc34)c2)oc2cc(O)cc(O)c12 [AMENTOFLAVONE],–,–
36.4 µM,2.2 µM,C/C=C(\C)C(=O)c1c(O)c(/C(=C/C(=O)O)c2ccccc2)c2c(c1OC)C=CC(C)(C)O2,41.1 µM,19.2
21.6 µM,> 60 µM,C[C@@H]1C(=O)c2c(c3c(c4c(-c5ccccc5)cc(=O)oc24)OC(C)(C)C=C3)O[C@@H]1C,–,–
1.13 µM,0.19 µM,CO[C@@]12[C@H](COC(N)=O)C3=C(C(=O)C(C)=C(N)C3=O)N1C[C@@H]1N[C@@H]12 [MITOMYCIN],–,–
29.9 µM,2.6 µM,C/C=C(\C)C(=O)c1c(OC)c2c(c3c(-c4ccccc4)cc(=O)oc13)OC1C2C1(C)C (stereo unspecified),22.3 µM,8.6
4.8 µM,1 µM,CC1(C)C=Cc2c(cc3oc4c(O)c(O)ccc4c(=O)c3c2O)O1 [JACAREUBIN],10.2 µM,10.2
14.5 µM,36.8 µM,C=C(C)C(O)Cc1c(O)cc2c(=O)c3cccc(O)c3oc2c1O (stereo unspecified),–,–
26 µM,2.7 µM,CC1(C)C=Cc2c(cc3oc4c(O)cccc4c(=O)c3c2O)O1,25.3 µM,9.4
8.3 µM,35.3 µM,C[C@H]1Oc2c3c(c4c(-c5ccccc5)cc(=O)oc4c2C(=O)[C@@H]1C)OC(C)(C)C=C3,–,–
